In ChEMBL document CHEMBL2203002, “Fluorescent nitrile-based inhibitors of cysteine cathepsins” (Bioorg Med Chem Lett, 2012):

How the values were obtained:
[1] = Inhibition of human cathepsin L using Z-Phe-Arg-pNA as substrate after 10 mins by […] analysis
Cathepsin S [2] = biological target: T1, Cathepsin S (Homo sapiens, UniProt P25774); experiment: Inhibition of human recombinant cathepsin S using Z-Phe-Arg-pNA as substrate after 10 mins by […] analysis
Target sequence in this assay (P25774 whole entry): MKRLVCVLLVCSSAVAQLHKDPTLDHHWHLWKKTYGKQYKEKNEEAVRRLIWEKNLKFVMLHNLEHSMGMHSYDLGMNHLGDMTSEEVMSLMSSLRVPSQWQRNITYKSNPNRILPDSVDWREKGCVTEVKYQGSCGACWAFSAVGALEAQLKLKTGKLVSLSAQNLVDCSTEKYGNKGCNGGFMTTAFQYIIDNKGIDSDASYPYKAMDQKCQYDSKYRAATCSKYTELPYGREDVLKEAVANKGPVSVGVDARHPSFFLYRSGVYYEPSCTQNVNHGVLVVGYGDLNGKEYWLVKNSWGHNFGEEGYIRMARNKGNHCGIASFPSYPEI

Cathepsin B [3] = biological target: T2, Cathepsin B (Homo sapiens, UniProt P07858); experiment: Inhibition of human recombinant cathepsin B using Z-Arg-Arg-pNA as substrate after 10 mins by […] analysis
Cathepsin K [4] = biological target: T3, Cathepsin K (Homo sapiens, UniProt P43235); experiment: Inhibition of human recombinant cathepsin K using Z-Leu-Arg-AMC as substrate after 10 mins by fluorimetric analysis
T3 sequence (P43235 whole entry): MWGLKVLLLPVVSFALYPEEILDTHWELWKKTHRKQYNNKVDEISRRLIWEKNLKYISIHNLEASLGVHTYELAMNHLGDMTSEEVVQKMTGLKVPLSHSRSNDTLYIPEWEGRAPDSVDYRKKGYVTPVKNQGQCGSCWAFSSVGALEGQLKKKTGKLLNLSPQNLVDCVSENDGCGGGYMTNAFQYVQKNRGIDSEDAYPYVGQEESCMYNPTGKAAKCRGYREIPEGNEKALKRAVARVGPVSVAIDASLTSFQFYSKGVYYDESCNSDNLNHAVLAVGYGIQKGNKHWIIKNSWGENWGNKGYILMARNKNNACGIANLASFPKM

Cathepsin B [5] = biological target: T2, Cathepsin B; experiment: Inhibition of human recombinant cathepsin B using Z-Arg-Arg-pNA as substrate after 80 mins by […] analysis
Cathepsin S [6] = biological target: T1, Cathepsin S
Target sequence in this assay (P25774 115-331 limits assumed): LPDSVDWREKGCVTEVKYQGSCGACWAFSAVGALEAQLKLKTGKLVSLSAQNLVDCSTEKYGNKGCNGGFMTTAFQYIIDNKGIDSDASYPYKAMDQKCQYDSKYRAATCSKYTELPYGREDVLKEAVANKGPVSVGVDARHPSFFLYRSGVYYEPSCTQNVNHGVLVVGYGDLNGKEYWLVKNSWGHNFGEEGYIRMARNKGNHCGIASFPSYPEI
Description: Binding affinity to human recombinant cathepsin S assessed as compound-enzyme half life

Cathepsin S [7] = biological target: T1, Cathepsin S; experiment: Inhibition of human recombinant cathepsin S using Z-Phe-Arg-pNA as substrate after 80 mins by […] analysis
Target sequence in this assay (P25774 whole entry): as the sequence (P25774 whole entry) above

Cathepsin B [8] = biological target: T2, Cathepsin B
Description: Binding affinity to human recombinant cathepsin B assessed as compound-enzyme half life

Cathepsin K [9] = biological target: T3, Cathepsin K; experiment: Inhibition of human recombinant cathepsin K using Z-Leu-Arg-AMC as substrate after 80 mins by fluorimetric analysis
[10] = biological target: T4, Cathepsin K (Homo sapiens) (UniProt P43235)
T4 sequence (whole entry): T3 sequence (P43235 whole entry)
Description: Binding affinity to human recombinant cathepsin K assessed as compound-enzyme half life

[11] = Inhibition of human cathepsin L using Z-Phe-Arg-pNA as substrate incubated for 30 mins prior to substrate addition measured after 10 mins by […] analysis

Row | Ki [1] | Ki (Cathepsin S [2]) | Ki (Cathepsin B [3]) | Ki (Cathepsin K [4]) | Ki (Cathepsin B [5]) | T1/2 (Cathepsin S [6]) | Ki (Cathepsin S [7]) | T1/2 (Cathepsin B [8]) | Ki (Cathepsin K [9]) | T1/2 [10] | Ki [11] | SMILES
1 | > 40000 nM | 6600 nM | > 40000 nM | 880 nM | – | – | – | – | – | – | – | CN(C)c1cccc2c(S(=O)(=O)NC3(C(=O)NCC#N)CCCCC3)cccc12
2 | 18000 nM | 8400 nM | > 40000 nM | 230 nM | – | – | – | – | – | – | – | CCN(CC)c1ccc2cc(C(=O)NC3(C(=O)NCC#N)CCCCC3)c(=O)oc2c1
3 | – | – | – | – | 140 nM | 30 min | 750 nM | 30 min | 19 nM | 30 min | 760 nM | CCN(CC)c1ccc2cc(C(=O)NC3(C(=O)N(C)N(C)C#N)CCCCC3)c(=O)oc2c1
